Laboratory results: article PMC6155387, “Alkoxy and Enediyne Derivatives Containing 1,4-Benzoquinone Subunits—Synthesis and Antitumor Activity” (Molecules : A Journal of Synthetic Chemistry and Natural …, 2017)
Where two headings read alike, the source gives them in different places.

What was measured:
Format in all cases: cell-based, human
MDA-MB-231 = test: antiproliferative activity (WST-1), breast cancer MDA-MB-231; settings: for IC50: read-out: IC50 ± SD MDA-MB-231; for SI (IC50 HFF-1/IC50 cancer line) MDA-MB-231: selectivity index, HFF-1 vs MDA-MB-231
Method: (§1) Biological activity of the tested compounds was assessed in vitro using cultured cell lines: melanoma C-32 (ATCC, Rockville, MD, USA), glioblastoma SNB-19 (DSMZ, Braunschweig, Germany), breast cancer MDA-MB-231 (ATCC, Rockville, MD, USA), and normal human fibroblasts derived from foreskin HFF-1 (ATCC, Rockville, MD, USA). Cell cultures were maintained using DMEM (Lonza, Basel, Switzerland) supplemented with 10% fetal bovine serum (FBS) (Biological Industries Cromwell, CT, USA) and a mixture of penicillin (10,000 U/mL) and streptomycin (10 mg/mL) (Lonza, Basel, Switzerland).
(§2) Cells were cultured using 96-well plates (Nunc Thermo Fisher Scientific, Waltham, MA, USA). Cells were seeded (5 × 10^3 cells/well) and incubated for 24 h in a standard incubator (37 °C, 5% CO2, relative humidity 95%). Subsequently, the medium was replaced with a fresh aliquot containing an examined compound (0.01; 0.05; 0.1; 0.5; 1; 5; 10; 50; 100 µg/mL), and cells were further incubated for another 72 h. Upon the conclusion of incubation, a CVDE test (Aniara, West Chester, OH, USA) using crystal violet was performed to assess the relative number of cells in the culture. A WST-1 test (Roche) was performed to examine the metabolic activity of cells and test for the presence of LDH in the medium (Roche Diagnostics GmbH, Mannheim, Germany), allowing for the assessment of the relative number of dead cells (i.e., cytotoxicity of the examined compound). UVM340 microplate readers (BIOGENET, Józefów, Poland) were used to read absorbance values.
(§3) WST-1 colorimetric assay for cell proliferation (Roche Diagnostics GmbH, Mannheim, Germany, reagent kit cat. 11644807001) is based on the viable cells’ ability to cleave the bright red-colored stable tetrazolium salt WST-1 to dark red soluble formazan. This bioreduction occurs under the influence of mitochondrial dehydrogenases (depends mostly on production of NAD(P)H in viable cells). The amount of formazan dye formed correlates directly with the number of metabolically active cells in the culture and is measured by absorbance (λ = 450 nm) following 1 h incubation of cells with the reagent.

SNB-19 = test: antiproliferative activity (WST-1), glioblastoma SNB-19; settings: for IC50: glioblastoma SNB-19, 72 h, WST-1, Neg: negative in the concentration used, read-out: IC50 ± SD SNB-19; for SI (IC50 HFF-1/IC50 cancer line) SNB-19: selectivity index, HFF-1 vs SNB-19
Method: as §1, §2, §3

C-32 = test: antiproliferative activity (WST-1), melanoma C-32; settings: for IC50: melanoma C-32, 72 h, WST-1, Neg: negative in the concentration used, read-out: IC50 ± SD C-32; for SI (IC50 HFF-1/IC50 cancer line) C-32: selectivity index, HFF-1 vs C-32
Method: as §1, §2, §3

HFF-1 = test: antiproliferative activity (WST-1), normal fibroblasts HFF-1; settings: normal fibroblasts HFF-1, 72 h, Neg: negative in the concentration used; for IC50: read-out: IC50 ± SD HFF-1
Method: as §1, §2, §3

[1] = Homo sapiens, breast cancer MDA-MB-231, 72 h, WST-1, Neg: negative in the concentration used
[2] = breast cancer MDA-MB-231, 72 h, WST-1, Neg: negative in the concentration used

Row | SMILES | IC50 (MDA-MB-231; [1]) [µM] | SI (IC50 HFF-1/IC50 cancer line) MDA-MB-231 (MDA-MB-231) | IC50 (SNB-19; Homo sapiens) [µM] | SI (IC50 HFF-1/IC50 cancer line) SNB-19 (SNB-19) | IC50 (C-32; Homo sapiens, C32) [µM] | SI (IC50 HFF-1/IC50 cancer line) C-32 (C-32) | IC50 (HFF-1; Homo sapiens) [µM] | IC50 (MDA-MB-231; [2]) [µM] | IC50 (SNB-19) [µM] | IC50 (C-32) [µM] | IC50 (HFF-1) [µM] | times more activity against the C-32 cell compared to cisplatin (C-32; C-32, ratio of IC50 vs cisplatin) [times] | times more activity against the C-32 cell compared to (Z)-4-octen-2,6-diyn-1,8-diol (22) (C-32; C-32, ratio of IC50 vs compound 22) [times] | IC50 ± SD HFF-1 (HFF-1) | IC50 ± SD MDA-MB-231 (MDA-MB-231; [2])
1 | Cc1ccc2c(n1)C(=O)C(Cl)=C(Cl)C2=O [Compound 3, 6,7-dichloro-2-methyl-5,8-quinolinedione] | 23.3 ± 0.3 | 0.43 | 15.9 ± 0.3 | 0.63 | 10.5 ± 0.8 | 0.95 | 10 ± 1.4 | – | – | – | – | – | – | – | –
2 | N.N.[Cl][Pt][Cl] [cisplatin, reference compound] | – | – | – | 0.48 | – | 0.55 | – | 25.5 ± 0.2 | 18.9 ± 0.4 | 16.4 ± 1.2 | 9.1 ± 1.8 | – | – | – | –
3 | C#CCOC1=C(Cl)C(=O)c2ccc(C)nc2C1=O [Compound 12, 6-Chloro-2-methyl-7-(2-propynoxy)-5,8-quinolinedione] | 17.2 ± 2.5 | 0.81 | 19.5 ± 1 | 0.72 | 208 ± 4.6 | 0.07 | 14 ± 2.4 | – | – | – | – | – | – | – | –
4 | CCCOC1=C(OCCC)C(=O)c2nc(C)ccc2C1=O [Compound 19, 2-Methyl-6,7-dipropoxy-5,8-quinolinedione] | 71.3 ± 3.9 | 0.25 | 25.7 ± 1.4 | 0.69 | 131 ± 2.4 | 0.14 | 17.8 ± 1.8 | – | – | – | – | – | – | – | –
5 | C#CCOC1=C(OCC#C)C(=O)c2ccccc2C1=O [Compound 15, 2,3-di(2-Propynoxy)-1,4-naphthoquinon] | – | – | 18.6 ± 0.7 | 0.73 | 21.7 ± 0.6 | 0.62 | – | – | – | – | – | – | – | – | –
6 | C#CCOC1=C(Cl)C(=O)c2ccccc2C1=O [Compound 6, 2-Chloro-3-(2-propynoxy)-1,4-naphthoquinon] | 21 ± 1.5 | 0.19 | 8.4 ± 1.2 | 0.46 | 3.2 ± 0.6 | 1.22 | 3.9 ± 0.5 | – | – | – | – | – | – | – | –
7 | C=CCOC1=C(OCC=C)C(=O)c2nc(C)ccc2C1=O [Compound 20, 2-Methyl-6,7-di(2-propenoxy)-5,8-quinolinedione] | 26.8 ± 1.2 | 0.02 | 16.6 ± 3 | 0.04 | 18.9 ± 1.7 | 0.03 | 0.6 ± 0.2 | – | – | – | – | – | – | – | –
8 | CCCOC1=C(Cl)C(=O)c2ccccc2C1=O [Compound 4, 2-Chloro-3-propoxy-1,4-naphtoquinon] | 1.4 ± 0.3 | 10.57 | 18.4 ± 1.7 | 0.80 | 16.8 ± 0.3 | 0.88 | 14.8 ± 0.9 | – | – | – | – | – | – | – | –
9 | O=C1C(Cl)=C(OCC#CC=CC#CCO)C(=O)c2ncccc21 [Compound 24, 6-Chloro-7-(8-hydroxy-4-octen-2,6-diynyloxy)-5,8-quinolinedione] | 110 ± 8.1 | – | 2.4 ± 0.1 | – | 3.1 ± 0.1 | – | – | – | – | – | – | 5 | 51 | Neg | –
10 | C=CCOC1=C(Cl)C(=O)c2ccc(C)nc2C1=O [Compound 11, 6-Chloro-2-methyl-7-(2-propenoxy)-5,8-quinolinedione] | 24.6 ± 2.9 | 0.82 | 33.8 ± 1.3 | 0.59 | 168 ± 6.2 | 0.12 | 20.1 ± 1.2 | – | – | – | – | – | – | – | –
11 | C=CCOC1=C(Cl)C(=O)c2ccccc2C1=O [Compound 5, 2-Chloro-3-(2-propenoxy)-1,4-naphthoquinon] | 6.9 ± 1.9 | 0.55 | 3.8 ± 0.1 | 1.00 | 4 ± 0.1 | 0.95 | 3.8 ± 0.8 | – | – | – | – | – | – | – | –
12 | Cc1ccc2c(n1)C(=O)C(OCC#CC=CC#CCO)=C(Cl)C2=O [Compound 25, 6-Chloro-7-(8-hydroxy-4-octen-2,6-diynyloxy)-2-methyl-5,8-quinolinedione] | 16.5 ± 1.9 | – | 169 ± 4.8 | 0.16 | 116 ± 2.9 | 0.23 | 27.1 ± 1.1 | – | – | – | – | – | – | – | –
13 | CCCOC1=C(OCCC)C(=O)c2ccccc2C1=O [Compound 13, 2,3-Dipropoxy-1,4-naphtoquinon] | 22.6 ± 2.3 | 0.48 | 19.9 ± 1.4 | 0.54 | 22.6 ± 0.8 | 0.48 | 10.8 ± 0.5 | – | – | – | – | – | – | – | –
14 | Cc1ccc2c(n1)C(=O)C1=C(OCC#C/C=C\C#CCO1)C2=O [Compound 28, 8-Octen-6,10-diynyl-1,4-8-octen-6,10-diynyl-1,4-dioxocyclododeca[2,3-g]-2-methyl-5,8-quinolinedione] | 174 ± 5.9 | – | 157 ± 5.7 | 0.18 | 155 ± 3.7 | 0.18 | 27.8 ± 1.2 | – | – | – | – | – | – | – | –
15 | O=C1C2=C(OCC#C/C=C\C#CCO2)C(=O)c2ccccc21 [Compound 26, 8-Octen-6,10-diynyl-1,4-dioxocyclododeca[2,3-g]-1,4-naphthoquinon] | 2 ± 0.2 | – | 22.8 ± 1.4 | 0.77 | 30.3 ± 3.1 | 0.58 | 17.5 ± 1.3 | – | – | – | – | – | – | – | –
16 | CCCOC1=C(Cl)C(=O)c2ccc(C)nc2C1=O [Compound 10, 6-Chloro-2-methyl-7-propoxy-5,8-quinolinedione] | 22.2 ± 1.4 | 0.71 | 19.8 ± 1.4 | 0.80 | 26.8 ± 1.9 | 0.59 | 15.8 ± 1.8 | – | – | – | – | – | – | – | –
17 | O=C1C(Cl)=C(Cl)C(=O)c2ccccc21 [Compound 1, 2,3-Dichloro-1,4-naphtoquinon, reference compound] | 31.9 ± 2.7 | 0.49 | 26.6 ± 0.5 | 0.59 | 25 ± 0.3 | 0.62 | 15.6 ± 0.3 | – | – | – | – | – | – | – | –
18 | C=CCOC1=C(OCC=C)C(=O)c2ccccc2C1=O [Compound 14, 2,3-di(2-Propenoxy)-1,4-naphthoquinon] | 17.9 ± 0.8 | 0.25 | 19.6 ± 1 | 0.22 | 10.6 ± 0.6 | 0.42 | 4.4 ± 0.9 | – | – | – | – | – | – | – | –
19 | OCC#C/C=C\C#CCO [Compound 22, (Z)-oct-4-ene-2,6-diyne-1,8-diol] | – | 1.85 | 250 ± 4.3 | 1.04 | 159 ± 4.6 | 1.64 | 260 ± 5.6 | – | – | – | – | – | – | – | Neg
20 | O=C1C(Cl)=C(OCC#CC=CC#CCO)C(=O)c2ccccc21 [Compound 23, 2-Chloro-3-(8-hydroxy-4-octen-2,6-diynyloxy)-1,4-naphthoquinon] | 22.5 ± 2.4 | – | 186 ± 5 | 0.52 | 145 ± 4.8 | 0.67 | 97.6 ± 4 | – | – | – | – | – | – | – | –
